Laboratory results from patent EP4803513A1, “SUBSTITUTED QUINAZOLINE COMPOUND, PREPARATION METHOD THEREFOR, PHARMACEUTICAL COMBINATION THEREOF, AND USE THEREOF” (Hongyun Biotech Co., Ltd., priority 2023, dated 2025).

Key:
Assay type in all cases: cell-based
[1] = test system: WT-BaF3 cells; assay: Cell antiproliferative activity assay (CCK-8), WT-BaF3 (broad-spectrum cytotoxicity); settings: 72 h; WT-BaF3 cells (IL-3 supplemented), CCK-8, 3 days incubation
How it was run: (§1)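 Growth inhibition over 3 days, with compound serially diluted 3-fold from a 10 µM top concentration. Cells seeded at 100,000 cells/mL; WT-BaF3 medium carried 10% WEHI supernatant as the IL-3 source. Viability read by CCK-8 OD450 after 2-4 h; IC50 from blank-subtracted curve fit.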

[2] = test system: T47D cells; assay: Cell antiproliferative activity assay (CCK-8), T47D; settings: Homo sapiens, 72 h, breast cancer cell line T47D, incubation for 3 days
Method: BRK-BaF3, WT-BaF3, WEHI cell line, and breast cancer cell line T47D were cultured using RPMI 1640 Basal medium or DMEM (Dulbecco's Modified Eagle Medium) (Shanghai Peiyuan Biotechnology, L220KJ), supplemented with 10% FBS (Gibco, REF 10099-141C) and 1% P/S (Shanghai Peiyuan Biotechnology, S110JV), in an incubator (Thermo 3020) at 37°C with 5% CO2. Cell viability was above 95%. Cells were passaged at a 3:1 ratio every 3-4 days. For WT-BaF3 cells, WEHI cells were first cultured, and their culture supernatant was filtered through a 0.22 µm filter. This supernatant was added at 10% to the regular culture medium to supplement IL-3 required for WT-BaF3 cell proliferation, which served as the culture medium for WT-BaF3. For testing, cells were first collected and counted, then prepared into a cell suspension at 100,000 cells/mL and plated at 100 µL per well. Drug concentrations started from 10 µM and were serially diluted 3:1. After incubation for 3 days, 20 µL of CCK-8 detection reagent (Targetmol C005) was added to each well. After incubation for 2-4 hours, OD450 was measured using a microplate reader (Varioskan LUX, Thermo Scientific). After subtracting the blank background, the curve was fitted and the IC50 was calculated using XLfit software.
In addition, the following table exemplarily lists the IC50 values of some compounds of the present invention against T47D cells.

[3] = test system: BRK-BaF3 cells; assay: Cell antiproliferative activity assay (CCK-8), BRK-BaF3; settings: 72 h, CCK-8, 3 days incubation
How it was run: as §1

IC50 [2] [nM]	IC50 [3] [nM]	Compound	IC50 [1] [nM]
≤ 500	≤ 20	Cc1nn(CCO)cc1Nc1ncc2cc(-c3cnoc3C)cc(C(C)C)c2n1 [I-193]	100 to 500
≤ 500	≤ 20	Cc1nccnc1-c1cc(C(C)C)c2nc(Nc3ccc(P(C)(C)=O)cc3)ncc2c1 [II-11]	500 to 2500
500 to 1000	20 to 100	Cc1nccnc1-c1cc(C(C)C)c2nc(Nc3ccc(P(C)(C)=O)cc3F)ncc2c1 [II-12]	> 2500
≤ 500	≤ 20	COc1cc(Nc2ncc3cc(-c4nccnc4C)cc(C(C)C)c3n2)ccc1P(C)(C)=O [II-16]	500 to 2500
500 to 1000	≤ 20	Cc1nccnc1-c1cc(C(C)C)c2nc(Nc3ccc(P(C)(C)=O)c(C)c3F)ncc2c1 [II-18]	> 2500
≤ 500	≤ 20	COc1cc(Nc2ncc3cc(-c4nccnc4C)cc(C(C)C)c3n2)c(F)cc1P(C)(C)=O [II-22]	500 to 2500
≤ 500	≤ 20	COc1cc(Nc2ncc3cc(-c4nccnc4C)cc(C4CC4)c3n2)ccc1P(C)(C)=O [II-33]	100 to 500
500 to 1000	≤ 20	COc1cc(Nc2ncc3cc(-c4c(C)ncnc4C)cc(C4CC4)c3n2)ccc1P(C)(C)=O [II-62]	100 to 500
≤ 500	≤ 20	COc1cc(Nc2ncc3cc(-c4cccnc4C)cc(C4CC4)c3n2)ccc1P(C)(C)=O [II-64]	500 to 2500
≤ 500	≤ 20	COc1cc(Nc2ncc3cc(-c4nnccc4C)cc(C4CC4)c3n2)ccc1P(C)(C)=O [II-67]	100 to 500
≤ 500	20 to 100	COc1cc(Nc2ncc3cc(-c4nccnc4C)cc(C4CC4)c3n2)c(F)cc1P(C)(C)=O [II-70]	500 to 2500
≤ 500	≤ 20	COc1nc(Nc2ncc3cc(-c4nccnc4C)cc(C4CC4)c3n2)ccc1P(C)(C)=O [II-71]	500 to 2500
≤ 500	≤ 20	CCOc1cc(Nc2ncc3cc(-c4nccnc4C)cc(C4CC4)c3n2)ccc1P(C)(C)=O [II-72]	500 to 2500
≤ 500	≤ 20	CCP(=O)(CC)c1ccc(Nc2ncc3cc(-c4nccnc4C)cc(C4CC4)c3n2)cc1OC [II-74]	500 to 2500
≤ 500	≤ 20	CNc1cc(Nc2ncc3cc(-c4nccnc4C)cc(C4CC4)c3n2)ccc1P(C)(C)=O [II-77]	100 to 500
≤ 500	≤ 20	Cc1c[nH]c(=O)cc1-c1cc(C(C)C)c2nc(Nc3cn(C)nc3C)ncc2c1 [III-2]	> 2500
500 to 1000	≤ 20	Cc1c[nH]c(=O)cc1-c1cc(C(C)C)c2nc(Nc3cn(C)nc3C(F)F)ncc2c1 [III-4]	500 to 2500
≤ 500	≤ 20	[2H]C([2H])([2H])n1cc(Nc2ncc3cc(-c4cc(=O)[nH]cc4C)cc(C(C)C)c3n2)c(C)n1 [III-9]	500 to 2500
500 to 1000	≤ 20	Cc1c[nH]c(=O)cc1-c1cc(C(C)C)c2nc(Nc3cnn(C4CCN(C)CC4)c3C)ncc2c1 [III-14]	500 to 2500
≤ 500	≤ 20	Cc1nn(C)cc1Nc1ncc2cc(-c3cn(C)nc3C)cc(C(C)C)c2n1 [III-87]	100 to 500
500 to 1000	≤ 20	Cc1nn(C)cc1Nc1ncc2cc(-c3c[nH]nc3C)cc(C(C)C)c2n1 [III-88]	500 to 2500
≤ 500	≤ 20	Cc1ccnnc1-c1cc(C(C)C)c2nc(Nc3cn(C)nc3C)ncc2c1 [III-90]	100 to 500
≤ 500	≤ 20	Cc1nn(C)cc1Nc1ncc2cc(-c3cncnc3C)cc(C(C)C)c2n1 [III-92]	100 to 500
≤ 500	≤ 20	Cc1nn(C)cc1Nc1ncc2cc(-c3nccnc3C)cc(C(C)C)c2n1 [III-99]	500 to 2500
